# Columns and labels:
# Test in all cases: relative viability (nuclei count vs DMSO), 5 days (fraction); higher = more cells survive
# TGX 221 + Navitoclax = compound: CC1=CN2C(=O)C=C(N=C2C(=C1)C(C)NC3=CC=CC=C3)N4CCOCC4 [TGX 221] + CC1(C)CCC(c2ccc(Cl)cc2)=C(CN2CCN(c3ccc(C(=O)NS(=O)(=O)c4ccc(N[C@H](CCN5CCOCC5)CSc5ccccc5)c(S(=O)(=O)C(F)(F)F)c4)cc3)CC2)C1 [Navitoclax] (partner 0.5 µM)
# Summary of the method: (§1)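 Each reported value is a median over duplicate plates. It expresses relative viability: treated-well nuclei count divided by vehicle-well nuclei count. Lung cancer cell lines in 1536-well plates were dosed by pin tool a day after seeding, alone with one drug or with a fixed anchor-drug dose plus five library-drug doses (not always all listed) in √10 steps, and nuclei were counted after 5 days.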
# Ricolinostat + Olaparib = compound: O=C(CCCCCCNC(=O)c1cnc(N(c2ccccc2)c2ccccc2)nc1)NO [Ricolinostat] + O=C(c1cc(Cc2n[nH]c(=O)c3ccccc23)ccc1F)N1CCN(C(=O)C2CC2)CC1 [Olaparib] (partner 8 µM)
# Summary of the method: as §1
# [1] = compound: O=C(CCCCCCNC(=O)c1cnc(N(c2ccccc2)c2ccccc2)nc1)NO [Ricolinostat] + CCNC(=O)c1noc(-c2cc(C(C)C)c(O)cc2O)c1-c1ccc(CN2CCOCC2)cc1 [Luminespib] (partner 0.01 µM)
# Summary of the method: as §1
# TGX 221 + Decitabine = compound: CC1=CN2C(=O)C=C(N=C2C(=C1)C(C)NC3=CC=CC=C3)N4CCOCC4 [TGX 221] + Nc1ncn([C@H]2C[C@H](O)[C@@H](CO)O2)c(=O)n1 [Decitabine] (partner 2 µM)
# Summary of the method: as §1
# [2] = compound: O=C(CCCCCCNC(=O)c1cnc(N(c2ccccc2)c2ccccc2)nc1)NO [Ricolinostat] + Nc1ncn([C@H]2C[C@H](O)[C@@H](CO)O2)c(=O)n1 [Decitabine] (partner 2 µM)
# Summary of the method: as §1
cell line,measurement,setting,value
NCI-H1792,relative viability,TGX 221 + Navitoclax; first compound 0.08 µM,0.549
same,relative viability,TGX 221 + Navitoclax; first compound 0.253 µM,0.713
same,relative viability,TGX 221 + Navitoclax; first compound 0.8 µM,0.591
same,relative viability,TGX 221 + Navitoclax; first compound 2.53 µM,0.62
same,relative viability,TGX 221 + Navitoclax; first compound 8 µM,0.625
same,relative viability,Ricolinostat + Olaparib; first compound 0.253 µM,0.391
same,relative viability,Ricolinostat + Olaparib; first compound 0.8 µM,0.284
same,relative viability,Ricolinostat + Olaparib; first compound 2.53 µM,0.041
same,relative viability,[1]; first compound 0.08 µM,0.297
same,relative viability,[1]; first compound 0.253 µM,0.417
same,relative viability,[1]; first compound 0.8 µM,0.373
same,relative viability,[1]; first compound 2.53 µM,0.418
same,relative viability,TGX 221 + Decitabine; first compound 0.08 µM,0.522
same,relative viability,TGX 221 + Decitabine; first compound 0.253 µM,0.479
same,relative viability,TGX 221 + Decitabine; first compound 0.8 µM,0.549
same,relative viability,TGX 221 + Decitabine; first compound 2.53 µM,0.454
same,relative viability,TGX 221 + Decitabine; first compound 8 µM,0.362
same,relative viability,[2]; first compound 0.253 µM,0.484
same,relative viability,[2]; first compound 0.8 µM,0.492
same,relative viability,[2]; first compound 2.53 µM,0.366
